Test results published in PubChem BioAssay AID256 (DTP/NCI, 2004).
Where “and” joins values, the source holds several entries; their conditions need not be identical. Equal values may be shown once. Inconclusive results and toxic doses are left out. The calls were made as follows: active = survival T/C of 150% or more; inactive = T/C below 125% in these data. Non-standard residues stand in square brackets, D forms with d. Residues, ends and D or L forms follow the SMILES beside them. ξ: configuration not given here. *: point of attachment. Trt = c1ccc(C(c2ccccc2)(c2ccccc2)*)cc1; Cbz = O=C(OCc1ccccc1)*; OtBu = CC(C)(C)O*; ξC = NC(CS)C(=O)O

System: CD2F1 mice, L1210 leukemia ip, survival T/C
Test: NCI In Vivo Anticancer Drug Screen. Data for tumor model L1210 Leukemia (intraperitoneal) in CD2F1 (CDF1) mice
Settings: endpoint: mean survival time, higher = longer survival
In short: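 Compound-dosed mice with transplantable tumor versus matched vehicle controls; endpoint ratio T/C reported.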

[1] = dose: 100.0 mg/kg/injection, schedule: Q04DX003 (ip), vehicle: saline with Tween-80
[2] = dose: 100.0 mg/kg/injection, schedule: Q01DX009 (ip), vehicle: saline with Tween-80
[3] = dose: 200.0 mg/kg/injection, schedule: Q01DX009 (ip), vehicle: saline with Tween-80
[4] = dose: 200.0 mg/kg/injection, schedule: Q04DX003 (ip), vehicle: saline with Tween-80
[5] = dose: 400.0 mg/kg/injection, schedule: Q01DX009 (ip), vehicle: saline with Tween-80
[6] = dose: 400.0 mg/kg/injection, schedule: Q04DX003 (ip), vehicle: saline with Tween-80

Measured: T/C

CN(C)c1ccc(C(Cc2ccc(Nc3ccccc3)c3ccccc23)=C2C=CC(=[N+](C)C)C=C2)cc1
inactive: dose: 3.13 mg/kg/injection, schedule: Q01DX001 (ip), vehicle: saline 96 % of control | dose: 6.25 mg/kg/injection, schedule: Q01DX001 (ip), vehicle: saline 93 % of control | dose: 12.5 mg/kg/injection, schedule: Q01DX001 (ip), vehicle: saline 118 % of control and 93 % of control | dose: 25.0 mg/kg/injection, schedule: Q01DX001 (ip), vehicle: saline 106 % of control

N#CCN(CC#N)c1ccccc1
inactive: dose: 1.56 mg/kg/injection, schedule: Q01DX001 (ip), vehicle: other 95 % of control | dose: 3.13 mg/kg/injection, schedule: Q01DX001 (ip), vehicle: other 95 % of control | dose: 6.25 mg/kg/injection, schedule: Q01DX001 (ip), vehicle: other 98 % of control and 100 % of control

Brc1ccc2sc3ccccc3c2c1
inactive: dose: 100.0 mg/kg/injection, schedule: Q04DX002 (ip), vehicle: saline with Tween-80 102 % of control | dose: 200.0 mg/kg/injection, schedule: Q04DX002 (ip), vehicle: saline with Tween-80 89 % of control | dose: 400.0 mg/kg/injection, schedule: Q04DX002 (ip), vehicle: saline with Tween-80 91 % of control

CCCCCCCCCc1ccc(OCCOCCOCCOCCOCCOCCOCCOCCOCCOC(C)N2CCCC2=O)cc1 (stereo not given)
inactive: dose: 25.0 mg/kg/injection, schedule: Q01DX009 (ip), vehicle: saline with Tween-80 96 % of control | dose: 50.0 mg/kg/injection, schedule: Q04DX003 (ip), vehicle: saline with Tween-80 108 % of control | [1] 93 % of control

CC(=O)Nc1ccccc1Sc1ccncc1[N+](=O)[O-]
inactive: [2] 100 % of control | [1] 88 % of control | [3] 100 % of control | [4] 92 % of control | [5] 90 % of control | [6] 95 % of control

CC(C)(C)OC(=O)CNC(=O)CNC(=O)CNC(=O)C(CSC(c1ccccc1)(c1ccccc1)c1ccccc1)NC(=O)OCc1ccccc1 (stereo not given) (Cbz-[ξC](Trt)GGG-OtBu)
inactive: [1] 101 % of control | [4] 95 % of control | [6] 92 % of control

O=C1C2C3CCC(C3)C2C(=O)C2C3CCC(C3)C12 (stereo not given)
inactive: dose: 100.0 mg/kg/injection, schedule: Q04DX003 (ip), vehicle: other 93 % of control | dose: 200.0 mg/kg/injection, schedule: Q04DX003 (ip), vehicle: other 89 % of control | dose: 400.0 mg/kg/injection, schedule: Q04DX003 (ip), vehicle: other 93 % of control

Cc1c([N+](=O)[O-])cc(Cl)n[n+]1[O-]
inactive: dose: 3.13 mg/kg/injection, schedule: Q04DX002 (ip), vehicle: saline with Tween-80 101 % of control | dose: 6.25 mg/kg/injection, schedule: Q04DX002 (ip), vehicle: saline with Tween-80 97 % of control | dose: 12.5 mg/kg/injection, schedule: Q04DX002 (ip), vehicle: saline with Tween-80 96 % of control

CC(=O)Nc1nc(Br)c2ccccc2c1-c1ccc(N(CCCl)CCCl)cc1
inactive: dose: 3.13 mg/kg/injection, schedule: Q04DX003 (ip), vehicle: DMSO 104 % of control | dose: 6.25 mg/kg/injection, schedule: Q04DX003 (ip), vehicle: DMSO 102 % of control | dose: 12.5 mg/kg/injection, schedule: Q04DX003 (ip), vehicle: DMSO 101 % of control | dose: 25.0 mg/kg/injection, schedule: Q04DX003 (ip), vehicle: DMSO 98 % of control

C1CC[N-]CC1.[Cl][Pt+2][Cl].[NH2-]
inactive: dose: 6.25 mg/kg/injection, schedule: Q04DX003 (ip), vehicle: distilled water + Tween-80 100 % of control | dose: 12.5 mg/kg/injection, schedule: Q04DX003 (ip), vehicle: distilled water + Tween-80 96 % of control | dose: 25.0 mg/kg/injection, schedule: Q04DX003 (ip), vehicle: distilled water + Tween-80 94 % of control | dose: 50.0 mg/kg/injection, schedule: Q04DX003 (ip), vehicle: distilled water + Tween-80 91 % of control

CC(=O)Oc1cc2c(cc1C(C)C)CCC1C(C)(C#N)CCCC21C (stereo not given)
inactive: [2] 90 % of control | [1] 89 % of control | [3] 95 % of control | [4] 87 % of control | [5] 92 % of control | [6] 98 % of control

O=C(N/N=C/c1ccc2c(c1)CCC2)c1ccccc1[N+](=O)[O-]
inactive: dose: 100.0 mg/kg/injection, schedule: Q01DX001 (ip), vehicle: Klucel (hydroxypropylcellulose) (HPC) 95 % of control | dose: 200.0 mg/kg/injection, schedule: Q01DX001 (ip), vehicle: Klucel (hydroxypropylcellulose) (HPC) 94 % of control | [4] 89 % of control | dose: 400.0 mg/kg/injection, schedule: Q01DX001 (ip), vehicle: Klucel (hydroxypropylcellulose) (HPC) 97 % of control | [6] 96 % of control

O=c1ccc2ccc(O)cc2o1
inactive: dose: 50.0 mg/kg/injection, schedule: Q01DX009 (ip), vehicle: saline with Tween-80 101 % of control | dose: 100.0 mg/kg/injection, schedule: Q01DX001 (ip), vehicle: saline 103 % of control | [2] 93 % of control | dose: 200.0 mg/kg/injection, schedule: Q01DX001 (ip), vehicle: saline 108 % of control | [3] 97 % of control | dose: 400.0 mg/kg/injection, schedule: Q01DX001 (ip), vehicle: saline 103 % of control

CC(C)CCCC(C)[C@@H]1CCC2[C@H]3CCC4(C)CC5=C(C[C@@]4(C)C3CC[C@]21C)C(=O)CC1C2CCCCC2CCN51 (stereo not given in full)
inactive: dose: 100.0 mg/kg/injection, schedule: Q01DX001 (ip), vehicle: saline with Tween-80 102 % of control | dose: 200.0 mg/kg/injection, schedule: Q01DX001 (ip), vehicle: saline with Tween-80 90 % of control | dose: 400.0 mg/kg/injection, schedule: Q01DX001 (ip), vehicle: saline with Tween-80 90 % of control

CC(=O)C1CN(C(C)(C)C)C1
inactive: dose: 6.25 mg/kg/injection, schedule: Q01DX009 (ip), vehicle: saline 93 % of control | dose: 6.25 mg/kg/injection, schedule: Q04DX003 (ip), vehicle: saline 98 % of control | dose: 12.5 mg/kg/injection, schedule: Q01DX009 (ip), vehicle: saline 98 % of control | dose: 12.5 mg/kg/injection, schedule: Q04DX003 (ip), vehicle: saline 96 % of control | dose: 25.0 mg/kg/injection, schedule: Q01DX009 (ip), vehicle: saline 98 % of control | dose: 25.0 mg/kg/injection, schedule: Q04DX003 (ip), vehicle: saline 95 % of control

CCCCN1CCCCC1C(=O)Nc1c(C)cccc1C (stereo not given)
inactive: dose: 9.5 mg/kg/injection, schedule: Q01DX001 (ip), vehicle: saline 102 % of control | dose: 19.0 mg/kg/injection, schedule: Q01DX001 (ip), vehicle: saline 102 % of control | dose: 38.0 mg/kg/injection, schedule: Q01DX001 (ip), vehicle: saline 100 % of control

C/C(=N\O)C(C)(O)C(C)(C)C (stereo not given)
inactive: [1] 90 % of control | [4] 98 % of control | [6] 93 % of control

CC(C)CP(=O)(CC(C)C)CC(C)C
inactive: dose: 1.56 mg/kg/injection, schedule: Q04DX003 (ip), vehicle: saline with Tween-80 98 % of control | dose: 3.13 mg/kg/injection, schedule: Q04DX003 (ip), vehicle: saline with Tween-80 98 % of control | dose: 6.25 mg/kg/injection, schedule: Q04DX003 (ip), vehicle: saline with Tween-80 101 % of control

Cc1ccc(S(=O)(=O)OC2CCCCC2c2ccc(C(F)(F)F)cc2)cc1 (stereo not given)
inactive: dose: 75.0 mg/kg/injection, schedule: Q01DX001 (ip), vehicle: other 96 % of control | dose: 150.0 mg/kg/injection, schedule: Q01DX001 (ip), vehicle: other 88 % of control | dose: 300.0 mg/kg/injection, schedule: Q01DX001 (ip), vehicle: other 88 % of control

S=c1[nH]c2ccccc2[nH]c1=S
inactive: dose: 10.0 mg/kg/injection, schedule: Q01DX001 (ip), vehicle: Klucel (hydroxypropylcellulose) (HPC) 103 % of control | dose: 20.0 mg/kg/injection, schedule: Q01DX001 (ip), vehicle: Klucel (hydroxypropylcellulose) (HPC) 108 % of control

COC(=O)CC(=O)C1(C)CC1
inactive: dose: 100.0 mg/kg/injection, schedule: Q04DX003 (ip), vehicle: saline 90 % of control | dose: 200.0 mg/kg/injection, schedule: Q04DX003 (ip), vehicle: saline 93 % of control | dose: 400.0 mg/kg/injection, schedule: Q04DX003 (ip), vehicle: saline 96 % of control

CCCCCCCCN(C)N=Nc1ccc(C(N)=O)cc1
inactive: dose: 79.0 mg/kg/injection, schedule: Q01DX009 (ip), vehicle: Klucel (hydroxypropylcellulose) (HPC) 104 % of control | dose: 118.0 mg/kg/injection, schedule: Q01DX009 (ip), vehicle: Klucel (hydroxypropylcellulose) (HPC) 114 % of control | dose: 175.0 mg/kg/injection, schedule: Q01DX009 (ip), vehicle: Klucel (hydroxypropylcellulose) (HPC) 117 % of control | dose: 177.0 mg/kg/injection, schedule: Q01DX009 (ip), vehicle: Klucel (hydroxypropylcellulose) (HPC) 110 % of control | dose: 266.0 mg/kg/injection, schedule: Q01DX009 (ip), vehicle: Klucel (hydroxypropylcellulose) (HPC) 122 % of control | dose: 400.0 mg/kg/injection, schedule: Q01DX009 (ip), vehicle: Klucel (hydroxypropylcellulose) (HPC) 113 % of control and 118 % of control
